The values that follow come from PMC12002301, “Discovery and functional characterization of a bombesin-type neuropeptide signaling system in an invertebrate” (Proceedings of the National Academy of Sciences of the …, 2025).

Experiment [1] has as its system cardiac stomach preparations. Briefly: In vitro contraction of cardiac stomach preparations. Details: species or system Asterias rubens. The conditions noted are these: words, ArBN 10^-9 to 10^-6 M. The protocol:
ArBN (EPRRNYNRVFGPTY-NH2), ArBN5-14 (NYNRVFGPTY-NH2), and ArBNP65-81 (EPMPSSLALYIANLSP-NH2), were tested for effects on in vitro cardiac stomach and tube foot preparations from A. rubens. The preparations were dissected as described previously ([43], [59]–[61]), with the organs immersed in ice-cold artificial seawater during dissection. A description of the methods employed for investigation of in vitro effects of ArBN on cardiac stomach and tube foot preparations from A. rubens is included in SI Appendix, SI Methods. […]
Wax was removed from slides using xylene (3 × 10 min) and then slides were immersed in 100% ethanol (2 × 10 min). 0.3% hydrogen peroxide (VWR Chemicals, UK) in methanol was used to quench endogenous peroxidases for 30 min and then an ethanol series (90%, 70%, 50%), distilled water and PBST were used to rehydrate the tissue sections. 5% goat serum (Sigma-Aldrich, UK) made up in PBST was used for blocking for 2 h at room temperature. […]
All the dissected preparations were set up in an aerated organ bath filled with 20 ml artificial seawater maintained at approximately 11°C. Changes in the contractile state of preparations were detected by the transducer, which was linked via a bridge amplifier (FE221 Bridge Amp, ADInstruments Ltd, Oxford, UK) to data acquisition hardware (PowerLab 2/36, ADInstruments Ltd, Oxford, UK). […]

For experiment [2], the system named is CHO-K1 cells transfected with empty pcDNA3.1(+) vector. The experiment can be described thus: Luminescence control assay, CHO-K1 cells cotransfected with empty pcDNA3.1(+) vector and Gqs5. Format: cell-based, Chinese hamster. The conditions noted are these: empty pcDNA3.1(+) vector and Gqs5, words.

Turning to “EPMPSSLALYIANLSP-NH2 [ArBNP65-81, C-terminally amidated 16-residue peptide predicted to be derived from residues 65 to 81 of ArBNP]”, the “effect on cardiac stomach preparations” value in experiment [1] is on record as “neither ArBN5-14 nor ArBNP65-81 had any observable effect”. For the same substance, the peptide-induced luminescence result in experiment [2] is recorded as “did not trigger luminescence”.
For “NYNRVFGPTY-NH2 [ArBN5-14, C-terminally amidated 10-residue peptide corresponding to the C-terminal region of ArBN]”, in that order: “neither ArBN5-14 nor ArBNP65-81 had any observable effect” and “did not trigger luminescence”.
